± gives the expanded uncertainty stated by the source.
Tests used:
[1] = DTA
[2] = Molar enthalpy of transition or fusion; details: DSC
[3] = molar heat capacity at constant pressure; details: 101.33 kPa, Small sample (50 mg) DSC

O=S1(=O)CCCOC1 [1,3-oxathiane-3,3-dioxide]
Crystal
Details	Molar enthalpy of transition or fusion [kJ/mol]	Normal melting temperature [°C]
[1]	–	79.8 ± 2
[2]	15.2 ± 0.5	–

[3], Crystal
Details	molar heat capacity at constant pressure [J/K/mol]
268.15 K	133.2 ± 2.7
270.15 K	134.5 ± 2.7
275.15 K	136.5 ± 2.7
280.15 K	138.6 ± 2.8
285.15 K	140.6 ± 2.8
290.15 K	143.3 ± 2.9
295.15 K	146.3 ± 2.9
298.15 K	148.1 ± 3
300.15 K	149.6 ± 3
305.15 K	153.8 ± 3.1
310.15 K	158.6 ± 3.2
315.15 K	161.5 ± 3.2
320.15 K	164.8 ± 3.3
325.15 K	168.3 ± 3.4
330.15 K	171.7 ± 3.4
335.15 K	176.3 ± 3.5

c1cscn1 [1,3-thiazole]
Details	molar heat capacity at constant pressure [J/K/mol]
[3], 298.15 K, Liquid	122.1 ± 2.2

O=S1(=O)CCSCC1 [1,4-dithiane sulfone]
Crystal
Details	Molar enthalpy of transition or fusion [kJ/mol]	Normal melting temperature [°C]
[1]	–	201.1 ± 0.5
[2]	26 ± 0.4	–

[3], Crystal
Details	molar heat capacity at constant pressure [J/K/mol]
268.15 K	141 ± 2.8
270.15 K	141.7 ± 2.8
275.15 K	143.8 ± 2.9
280.15 K	145.9 ± 2.9
285.15 K	148.1 ± 3
290.15 K	149.8 ± 3
295.15 K	151.8 ± 3
298.15 K	152.7 ± 3.1
300.15 K	153.5 ± 3.1
305.15 K	155.6 ± 3.1
310.15 K	158.1 ± 3.2
315.15 K	160.5 ± 3.2
320.15 K	163 ± 3.3
325.15 K	165.5 ± 3.3
330.15 K	167.5 ± 3.4
335.15 K	168.9 ± 3.4
340.15 K	171 ± 3.4
345.15 K	173 ± 3.5
350.15 K	175.1 ± 3.5
355.15 K	177.4 ± 3.5
360.15 K	179.5 ± 3.6
365.15 K	181.6 ± 3.6
370.15 K	184.4 ± 3.7
375.15 K	186.2 ± 3.7
380.15 K	189.1 ± 3.8
385.15 K	191.2 ± 3.8
390.15 K	195.1 ± 3.9
395.15 K	199.6 ± 4
400.15 K	203.3 ± 4.1
405.15 K	205.7 ± 4.1
410.15 K	209.1 ± 4.2
415.15 K	212.2 ± 4.2
420.15 K	215.5 ± 4.3
425.15 K	218.8 ± 4.4
430.15 K	222.8 ± 4.5
435.15 K	226.2 ± 4.5
440.15 K	230.2 ± 4.6
445.15 K	234.7 ± 4.7
450.15 K	239.4 ± 4.8
454.15 K	243.2 ± 4.9

O=S1(=O)CCOCC1 [1,4-oxathiane 4,4-dioxide]
Details	Molar enthalpy of transition or fusion [kJ/mol]	Normal melting temperature [°C]
[1], Crystal 1	–	130.2 ± 0.4
[2], Crystal 2	20.2 ± 0.5	–

[3], Crystal 2
Details	molar heat capacity at constant pressure [J/K/mol]
268.15 K	134.2 ± 2.7
270.15 K	135.4 ± 2.7
275.15 K	137.3 ± 2.7
280.15 K	139.3 ± 2.8
285.15 K	141.7 ± 2.8
290.15 K	144.2 ± 2.9
295.15 K	146.6 ± 2.9
298.15 K	147.9 ± 3
300.15 K	148.9 ± 3
305.15 K	151.2 ± 3
310.15 K	153.1 ± 3.1
315.15 K	155.3 ± 3.1
320.15 K	157.6 ± 3.2
325.15 K	159.9 ± 3.2
330.15 K	162 ± 3.2
335.15 K	164.1 ± 3.3
340.15 K	166.9 ± 3.3
345.15 K	170.3 ± 3.4
350.15 K	172.8 ± 3.5
355.15 K	175.5 ± 3.5
360.15 K	177.7 ± 3.6
365.15 K	180.1 ± 3.6
370.15 K	182.5 ± 3.7
375.15 K	185.6 ± 3.7
380.15 K	188.6 ± 3.8
385.15 K	191.5 ± 3.8
390.15 K	194.7 ± 3.9

c1csc(-c2cccs2)c1 [2,2'-bithienyl]
Crystal
Details	Molar enthalpy of transition or fusion [kJ/mol]	Normal melting temperature [°C]
[1]	–	31.1 ± 0.5
[2]	16.5 ± 0.5	–

[3], Crystal
Details	molar heat capacity at constant pressure [J/K/mol]
263.15 K	175.4 ± 3.5
265.15 K	176.2 ± 3.5
270.15 K	178.3 ± 3.6
275.15 K	182.4 ± 3.6
280.15 K	185.6 ± 3.7
285.15 K	189.3 ± 3.8
290.15 K	192.9 ± 3.9
291.15 K	193.6 ± 3.9
295.15 K	198.5 ± 4
298.15 K	205.5 ± 4.1
300.15 K	218.1 ± 4.4

O=C(O)c1ccc(C(=O)O)s1 [2,5-thiophenedicarboxylic acid]
[3], Crystal
Details	molar heat capacity at constant pressure [J/K/mol]
277.15 K	161.4 ± 3.2
280.15 K	162.7 ± 3.3
285.15 K	163.7 ± 3.3
290.15 K	164.7 ± 3.3
295.15 K	166.4 ± 3.3
298.15 K	167.1 ± 3.3
300.15 K	167.7 ± 3.4
305.15 K	169.5 ± 3.4
310.15 K	171 ± 3.4
315.15 K	173.1 ± 3.5
320.15 K	175.1 ± 3.5
325.15 K	177 ± 3.5
330.15 K	178.1 ± 3.6
335.15 K	179.7 ± 3.6
340.15 K	180.8 ± 3.6
345.15 K	182.3 ± 3.6
350.15 K	184 ± 3.7
355.15 K	186.1 ± 3.7
360.15 K	186.4 ± 3.7
365.15 K	190.1 ± 3.8
370.15 K	192.4 ± 3.8
375.15 K	194.2 ± 3.9
380.15 K	196.7 ± 3.9
385.15 K	198.7 ± 4
390.15 K	200.9 ± 4
395.15 K	203.3 ± 4.1
400.15 K	206.1 ± 4.1
405.15 K	209.6 ± 4.2
410.15 K	210.9 ± 4.2
415.15 K	213.7 ± 4.3
420.15 K	216.3 ± 4.3
425.15 K	219.4 ± 4.4
430.15 K	223.1 ± 4.5
435.15 K	225.5 ± 4.5
440.15 K	228.1 ± 4.6
445.15 K	229.8 ± 4.6

CC(=O)c1cccs1 [2-acetylthiophene]
Details	molar heat capacity at constant pressure [J/K/mol]
[3], 298.15 K, Liquid	205.7 ± 4.2

O=C(O)Cc1cccs1 [2-thiopheneacetic acid]
Crystal
Details	Molar enthalpy of transition or fusion [kJ/mol]	Normal melting temperature [°C]
[1]	–	64.2 ± 0.5
[2]	14 ± 0.5	–

[3], Crystal
Details	molar heat capacity at constant pressure [J/K/mol]
268.15 K	146.3 ± 2.9
270.15 K	147.2 ± 2.9
275.15 K	149.6 ± 3
280.15 K	150.9 ± 3
285.15 K	153.4 ± 3.1
290.15 K	155.2 ± 3.1
295.15 K	157.6 ± 3.2
298.15 K	159.2 ± 3.2
300.15 K	160.3 ± 3.2
305.15 K	163.9 ± 3.3
310.15 K	166.1 ± 3.3
315.15 K	168.5 ± 3.4
320.15 K	170.5 ± 3.4
325.15 K	173.6 ± 3.5

CC(=O)c1ccsc1 [3-acetylthiophene]
Crystal
Details	Molar enthalpy of transition or fusion [kJ/mol]	Normal melting temperature [°C]
[1]	–	60.5 ± 0.5
[2]	18.9 ± 0.4	–

[3], Crystal
Details	molar heat capacity at constant pressure [J/K/mol]
268.15 K	134 ± 2.7
270.15 K	134.9 ± 2.7
275.15 K	136.7 ± 2.7
280.15 K	138.7 ± 2.8
285.15 K	140.3 ± 2.8
290.15 K	142.4 ± 2.8
295.15 K	145 ± 2.9
298.15 K	146.1 ± 2.9
300.15 K	147.5 ± 3

O=C(O)Cc1ccsc1 [3-thiopheneacetic acid]
Crystal
Details	Molar enthalpy of transition or fusion [kJ/mol]	Normal melting temperature [°C]
[1]	–	80.2 ± 0.5
[2]	18.8 ± 0.6	–

[3], Crystal
Details	molar heat capacity at constant pressure [J/K/mol]
268.15 K	151.1 ± 3
270.15 K	152.6 ± 3.1
275.15 K	155.6 ± 3.1
280.15 K	158.5 ± 3.2
285.15 K	160.8 ± 3.2
290.15 K	163.6 ± 3.3
295.15 K	166.6 ± 3.3
298.15 K	168.4 ± 3.4
300.15 K	169.8 ± 3.4
305.15 K	172.7 ± 3.5
310.15 K	175.3 ± 3.5
315.15 K	178.8 ± 3.6
320.15 K	182.7 ± 3.7
325.15 K	186.8 ± 3.7
330.15 K	190.6 ± 3.8
335.15 K	193.9 ± 3.9
340.15 K	198.7 ± 4

COC(=O)Cc1cccs1 [methyl 2-thiopheneacetate]
Details	molar heat capacity at constant pressure [J/K/mol]
[3], 298.15 K, Liquid	249.8 ± 3.9

COC(=O)Cc1ccsc1 [methyl 3-thiopheneacetate]
Details	molar heat capacity at constant pressure [J/K/mol]
[3], 298.15 K, Liquid	250.6 ± 4.9

Source: the NIST ThermoML archive (doi:10.1016/j.tca.2005.11.024)
